Source: the supplement of paper PMC8960247
Structures can show the parent of a compound that is named as a salt. ± gives the standard error.

Key:
621-102 (TSC2-deficient) = test: relative viability vs DMSO; higher = less cytotoxic; details: serum: 10% FBS, 72 h
621-103 (TSC2-rescued) = test: as above; details: serum: 10% FBS, 72 h
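Also: immortalized renal angiomyolipoma cells stably carrying empty vector or TSC2, dosed in 384-well plates in DMEM, viability normalized to vehicle-treated wells within each plate.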

SMILES | relative viability (621-102 (TSC2-deficient); 0.0001 µM) [%] | relative viability (621-102 (TSC2-deficient); 0.001 µM) [%] | relative viability (621-102 (TSC2-deficient); 0.01 µM) [%] | relative viability (621-102 (TSC2-deficient); 0.1 µM) [%] | relative viability (621-102 (TSC2-deficient); 1 µM) [%] | relative viability (621-102 (TSC2-deficient); 10 µM) [%] | relative viability (621-103 (TSC2-rescued); 0.0001 µM) [%] | relative viability (621-103 (TSC2-rescued); 0.001 µM) [%] | relative viability (621-103 (TSC2-rescued); 0.01 µM) [%] | relative viability (621-103 (TSC2-rescued); 0.1 µM) [%] | relative viability (621-103 (TSC2-rescued); 1 µM) [%] | relative viability (621-103 (TSC2-rescued); 10 µM) [%]
Cc1nnc(C(=O)NC(C)(C)c2nc(C(=O)NCc3ccc(F)cc3)c(O)c(=O)n2C)o1 [Raltegravir] | 106 ± 3.9 | 106 ± 3.1 | 108 ± 4.3 | 101.8 ± 0.33 | 110 ± 3.2 | 106 ± 3.2 | 99.5 ± 3 | 101 ± 1.5 | 100 ± 1.3 | 98.8 ± 1.3 | 101 ± 1.4 | 105 ± 2.1
O=C1c2ccccc2C(=O)c2c1ccc(O)c2O [Alizarin] | 108 ± 2.3 | 110 ± 0.84 | 108 ± 4.6 | 105 ± 1.5 | 107 ± 2.9 | 83 ± 3 | 101 ± 1.6 | 102 ± 5 | 101.4 ± 0.27 | 99.9 ± 3.2 | 95.2 ± 4.5 | 97.3 ± 1.1
Cc1nc(=O)c2cc(CN(C)c3ccc(C(=O)N[C@@H](CCC(=O)O)C(=O)O)s3)ccc2[nH]1 [Raltitrexed (Tomudex)] | 86.7 ± 3.5 | 92.8 ± 1.6 | 107 ± 1.7 | 103.6 ± 0.8 | 92.5 ± 1.6 | 80.3 ± 1.2 | 99.1 ± 5.1 | 97.1 ± 4.5 | 115 ± 4.2 | 113 ± 1.8 | 102.7 ± 0.7 | 96.3 ± 3.2
COc1ccc(-c2nc3cc(C4=NNC(=O)CC4C)ccc3[nH]2)cc1 (stereo not drawn) [Pimobendan (Vetmedin)] | 105.47 ± 0.018 | 106 ± 0.73 | 103 ± 2.5 | 108 ± 3.9 | 101 ± 2.5 | 87.99 ± 0.68 | 104 ± 2.3 | 101.7 ± 0.57 | 102.2 ± 0.15 | 100 ± 3.2 | 99.3 ± 3.6 | 84.13 ± 0.39
C/C(=C\C(=O)Nc1ccccc1C(=O)O)c1ccc2ccccc2c1 [BIBR1532] | 93.51 ± 0.69 | 98.3 ± 0.93 | 112 ± 5.2 | 105.7 ± 1 | 95.36 ± 0.93 | 87.4 ± 2.7 | 110 ± 3.1 | 98.3 ± 5 | 104.2 ± 0.53 | 103 ± 1.3 | 99.8 ± 0.11 | 96.4 ± 1.2
CC(C)(C)c1cc(C(C)(C)C)c(NC(=O)c2c[nH]c3ccccc3c2=O)cc1O [VX-770] | 97.8 ± 4.5 | 104 ± 5.4 | 116 ± 2.3 | 119 ± 3.2 | 111 ± 3.6 | 59.3 ± 16 | 101 ± 4.3 | 117 ± 6.1 | 114 ± 4.1 | 110 ± 3.3 | 112 ± 2.9 | 32.3 ± 8.3
COCCOC(=O)C1=C(C)NC(C)=C(C(=O)OC/C=C/c2ccccc2)C1c1cccc([N+](=O)[O-])c1 (stereo not drawn) [Cilnidipine] | 118 ± 4 | 100.5 ± 0.18 | 102.6 ± 0.79 | 95.6 ± 1.2 | 99.98 ± 0.81 | 98 ± 2.2 | 98.6 ± 2.3 | 104 ± 3.4 | 105.9 ± 0.78 | 113 ± 2.5 | 100 ± 1.8 | 104 ± 3.1
COC(=O)Nc1nc2cc(Sc3ccccc3)ccc2[nH]1 [Fenbendazole (Panacur)] | 114 ± 2 | 109.5 ± 0.17 | 98.4 ± 4.1 | 91.8 ± 1.4 | 38.2 ± 1.4 | 39.5 ± 0.88 | 108 ± 3.3 | 102 ± 3.8 | 110.5 ± 0.51 | 102 ± 2.8 | 44.28 ± 0.059 | 40.924 ± 0.025
CCc1c2c(nc3ccc(OC(=O)N4CCC(N5CCCCC5)CC4)cc13)-c1cc3c(c(=O)n1C2)COC(=O)[C@]3(O)CC [Irinotecan] | 105 ± 1.2 | 106 ± 3.8 | 93.9 ± 2.1 | 108 ± 2.8 | 82 ± 0.64 | 33.7 ± 0.69 | 104 ± 4.3 | 98.62 ± 0.9 | 103 ± 1.1 | 99.19 ± 0.57 | 84.6 ± 1.1 | 30.2 ± 0.71
COC(=O)Nc1ccc(-c2nc(N3CCOCC3)c3cnn(C4CCN(Cc5cccnc5)CC4)c3n2)cc1 [WYE-687] | 97.311 ± 0.046 | 102 ± 3 | 99.7 ± 1.4 | 100 ± 2.7 | 59.1 ± 2.8 | 16.2 ± 0.8 | 113 ± 3.9 | 115.4 ± 1.1 | 113 ± 1.5 | 104 ± 2.3 | 55.5 ± 0.9 | 23.1 ± 0.089
CO[C@@H]1[C@@H](OC(N)=O)[C@@H](O)[C@H](Oc2ccc3c(O)c(NC(=O)c4ccc(O)c(CC=C(C)C)c4)c(=O)oc3c2C)OC1(C)C [Novobiocin sodium (Albamycin)] | 97.5 ± 4.2 | 94.9 ± 2.2 | 99 ± 4 | 112 ± 1.2 | 107 ± 6.3 | 105 ± 4.1 | 104 ± 1.3 | 104.4 ± 0.12 | 102 ± 3.3 | 98.6 ± 2.8 | 105 ± 4.4 | 98.5 ± 3.8
C[C@H](NC(=O)Cc1cc(F)cc(F)c1)C(=O)N[C@H](C(=O)OC(C)(C)C)c1ccccc1 [DAPT (GSI-IX)] | 104 ± 4.3 | 99.1 ± 1.5 | 100 ± 2.3 | 97.82 ± 0.41 | 97.7 ± 4.1 | 97.1 ± 5.9 | 94.6 ± 6.5 | 105.2 ± 0.68 | 103.7 ± 0.49 | 101.4 ± 0.89 | 97.2 ± 2.8 | 98.2 ± 1.4
CC(C)(C)OC(=O)N[C@H]1CCCCC/C=C\[C@@H]2C[C@@]2(C(=O)NS(=O)(=O)C2CC2)NC(=O)[C@@H]2C[C@@H](OC(=O)N3Cc4cccc(F)c4C3)CN2C1=O [Danoprevir] | 105 ± 3.4 | 111 ± 3.4 | 113 ± 1.2 | 114 ± 3.5 | 97.9 ± 4.1 | 105.7 ± 0.94 | 100.3 ± 0.43 | 104.2 ± 0.88 | 101 ± 3.4 | 101.8 ± 0.53 | 98.14 ± 0.84 | 99.4 ± 1.5
O=C1NC(=O)/C(=C/c2ccc(-c3ccc(F)cc3O)o2)S1 | 111 ± 2.5 | 109 ± 2.8 | 102 ± 1.2 | 96.7 ± 3.6 | 106 ± 2.1 | 90.8 ± 2.4 | 92.9 ± 9.3 | 95.3 ± 2.2 | 96.95 ± 0.74 | 101 ± 5.6 | 88.2 ± 2 | 108 ± 3.4
Cn1cc(C2=C(c3ccc(Cl)cc3Cl)C(=O)NC2=O)c2ccccc21 | 107.48 ± 0.025 | 103 ± 2.8 | 98.2 ± 1.1 | 90.4 ± 5.3 | 96.83 ± 0.6 | 97.5 ± 1.9 | 77.6 ± 1.8 | 84.2 ± 1.4 | 89.8 ± 2.4 | 92.5 ± 5.7 | 80.2 ± 1.9 | 76.2 ± 6.7
CC(C)C(=O)Oc1ccc(CO)cc1[C@H](CCN(C(C)C)C(C)C)c1ccccc1 [Fesoterodine fumarate (Toviaz)] | 97.3 ± 5.3 | 100.52 ± 0.035 | 102 ± 1.2 | 109 ± 3.6 | 93.13 ± 0.096 | 94.5 ± 1.9 | 104 ± 1.1 | 105 ± 3 | 106 ± 2.1 | 107 ± 5.6 | 101.2 ± 0.67 | 95.413 ± 0.0029
COc1cc2nccc(Oc3ccc(NC(=O)C4(C(=O)Nc5ccc(F)cc5)CC4)cc3)c2cc1OC [XL184] | 110.1 ± 0.14 | 97.1 ± 3.1 | 98.8 ± 3.1 | 107 ± 1.7 | 107 ± 2 | 99.4 ± 0.21 | 97.27 ± 0.56 | 98.1 ± 1.1 | 96.6 ± 1.1 | 98.8 ± 2.2 | 98.7 ± 1.5 | 81.9 ± 4.7
COc1cc2c(Nc3ccc(NC(=O)c4ccccc4)cc3)ncnc2cc1OCCCN1CCOCC1 | 97.1 ± 1.7 | 91.95 ± 0.3 | 108 ± 2 | 90.2 ± 5.2 | 79.6 ± 3.6 | 7.78 ± 0.95 | 104 ± 1.1 | 111 ± 4.9 | 104 ± 1.9 | 105 ± 1.6 | 95.8 ± 2.5 | 12.4 ± 0.25
NC(CO)C(=O)NNCc1ccc(O)c(O)c1O (stereo not drawn) [Benserazide HCl] | 98.1 ± 5.3 | 93.8 ± 2.6 | 103 ± 3.5 | 107 ± 1.3 | 106 ± 2.3 | 101 ± 1.4 | 108.8 ± 0.38 | 104 ± 2.7 | 110 ± 2.1 | 109.5 ± 0.88 | 114 ± 2.6 | 105 ± 3.1
